Details in all cases: JH1 kinase domain, ADP-Glo
On the technique in general: ADP-Glo first removes unused ATP, then detects ADP through luciferase.

Test [1] addresses T1, human JAK1 kinase domain (JH1) (Homo sapiens, UniProt P23458).
T1 construct: recombinantly generated catalytic kinase (also known as JH1) domain of human JAK1, JAK2, JAK3 and TYK2
The test is described as follows: JH1 biochemical assay for JAK1 (ADP-Glo kinase assay, recombinant JH1 catalytic domain, JAK3-342 peptide, 35 μM ATP). As to the method:
(§1) Compounds of the disclosure were assessed for their ability to inhibit TYK2, JAK1, JAK2, and JAK3 activity. The inhibitory properties of the compounds of the disclosure described herein can be evidenced by testing in any one of the following protocols.
(§2) The kinase activity of recombinantly generated catalytic kinase (also known as JH1) domain of human JAK1, JAK2, JAK3 and TYK2 were evaluated in a plate-based assay using the ADP-Glo™ Kinase Assay platform. Specifically, 4 nM of recombinant JAK1 kinase domain is used to phosphorylate 50 μM of a JAK3-342 (sequence ALVDGYFRLTT) peptide in the presence of 35 μM ATP. Catalytic activities of recombinant JAK2, JAK3 and TYK2 kinase domain (0.2, 0.3 and 2 nM, respectively) are evaluated by the phosphorylation status of the JAK3-974 (50 μM; sequence LPLDKDYYVVR) peptide with the addition of ATP (15, 4 and 10 μM, respectively). The reactions proceed for 100 minutes and the catalytic activity is quantified by first depleting the unused ATP, converting the hydrolyzed ADP into ATP to generate luminescence in a luciferase reaction; which is the basis of the ADP-Glo platform. Compounds are tested at either 10 μM or 1 μM top concentration, 11 points of 3-fold dilution. The data is normalized and the percent activity versus log concentration of compound is fitted with a 4-parameter logistic model to generate a curve and an IC50 value.

Test [2] has as its target T2, human TYK2 kinase domain (JH1) (Homo sapiens, UniProt P29597).
T2 construct: recombinantly generated catalytic kinase (also known as JH1) domain of human JAK1, JAK2, JAK3 and TYK2
T2 sequence (P29597 897-1176 limits assumed): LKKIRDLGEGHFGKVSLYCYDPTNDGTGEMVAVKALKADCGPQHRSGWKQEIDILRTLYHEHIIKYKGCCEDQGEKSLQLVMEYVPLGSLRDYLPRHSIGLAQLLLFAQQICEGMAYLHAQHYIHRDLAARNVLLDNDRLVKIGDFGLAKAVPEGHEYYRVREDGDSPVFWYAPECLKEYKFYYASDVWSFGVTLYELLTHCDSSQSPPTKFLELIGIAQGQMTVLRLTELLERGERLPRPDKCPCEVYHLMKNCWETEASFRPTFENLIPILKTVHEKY
Nature of the test: JH1 biochemical assay for TYK2 (ADP-Glo kinase assay, recombinant JH1 catalytic domain, JAK3-974 peptide, 10 μM ATP). As to the method:
as §1, §2

Test [3] concerns the target T3, human JAK2 kinase domain (JH1) (Homo sapiens, UniProt O60674).
T3 construct: recombinantly generated catalytic kinase (also known as JH1) domain of human JAK1, JAK2, JAK3 and TYK2
Nature of the test: JH1 biochemical assay for JAK2 (ADP-Glo kinase assay, recombinant JH1 catalytic domain, JAK3-974 peptide, 15 μM ATP). As to the method: as §1, §2

Test [4] addresses T4, human JAK3 kinase domain (JH1) (Homo sapiens, UniProt P52333).
T4 construct: recombinantly generated catalytic kinase (also known as JH1) domain of human JAK1, JAK2, JAK3 and TYK2
Nature of the test: JH1 biochemical assay for JAK3 (ADP-Glo kinase assay, recombinant JH1 catalytic domain, JAK3-974 peptide, 4 μM ATP). As to the method:
as §1, §2

Where a name gives a salt, the structure may show the parent alone.

T3 sequence (O60674 849-1124 limits assumed): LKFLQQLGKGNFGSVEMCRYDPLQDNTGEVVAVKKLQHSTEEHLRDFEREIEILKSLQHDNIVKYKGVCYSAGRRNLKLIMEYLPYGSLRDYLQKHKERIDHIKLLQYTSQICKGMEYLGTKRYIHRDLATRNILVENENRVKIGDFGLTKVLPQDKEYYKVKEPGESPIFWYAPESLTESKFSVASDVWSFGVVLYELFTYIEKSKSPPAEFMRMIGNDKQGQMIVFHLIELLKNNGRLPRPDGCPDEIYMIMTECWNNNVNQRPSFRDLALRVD
T4 sequence (P52333 822-1111 limits assumed): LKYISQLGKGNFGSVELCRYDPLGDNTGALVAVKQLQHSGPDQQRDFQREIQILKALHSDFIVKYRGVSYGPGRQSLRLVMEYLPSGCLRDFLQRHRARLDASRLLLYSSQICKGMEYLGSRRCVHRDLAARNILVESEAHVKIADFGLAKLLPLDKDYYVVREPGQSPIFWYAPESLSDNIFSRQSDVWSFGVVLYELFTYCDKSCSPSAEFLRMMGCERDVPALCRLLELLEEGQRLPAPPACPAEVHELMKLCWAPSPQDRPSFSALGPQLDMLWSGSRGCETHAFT
T1 sequence (P23458 875-1153 limits assumed): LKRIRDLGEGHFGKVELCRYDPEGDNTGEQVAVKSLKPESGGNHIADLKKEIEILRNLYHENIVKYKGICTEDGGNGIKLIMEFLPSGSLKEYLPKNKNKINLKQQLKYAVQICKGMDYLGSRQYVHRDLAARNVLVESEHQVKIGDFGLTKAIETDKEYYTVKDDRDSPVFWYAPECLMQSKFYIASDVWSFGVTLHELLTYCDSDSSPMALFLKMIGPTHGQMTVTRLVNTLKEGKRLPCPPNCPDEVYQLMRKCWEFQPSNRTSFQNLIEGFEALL

For `C[C@@H]1CN(c2ccnn3cc(-c4ccnn4C)cc23)C(=O)[C@]1(C#N)C1CC1` [Example 49, (3R,4S)-3-cyclopropyl-4-methyl-1-(6-(1-methyl-1H-pyrazol-5-yl)pyrrolo[1,2-b]pyridazin-4-yl)-2-oxopyrrolidine-3-carbonitrile], the IC50 in test [1] is 100 to 1000 nM; in test [2], 20 to 50 nM; in test [3], 1000 to 5000 nM; in test [4] it was 1000 to 5000 nM.
Regarding `C[C@@H]1CN(c2ccnn3cc(-c4cccnc4OC(F)F)cc23)C(=O)[C@]1(C#N)C1CC1` [Example 50, (3R,4S)-3-cyclopropyl-1-(6-(2-(difluoromethoxy)pyridin-3-y1)pyrrolo[1,2-b]pyridazin-4-yl)-4-methyl-2-oxopyrrolidine-3-carbonitrile], the IC50 was 1000 to 5000 nM in test [1], 50 to 100 nM in test [2], 1000 to 5000 nM in test [3] and 1000 to 5000 nM in test [4].
Consider `C[C@@H]1CN(c2ccnn3cc(-c4cncc(C(F)(F)F)c4)cc23)C(=O)[C@]1(C#N)C1CC1` [Example 70, (3R,4S)-3-cyclopropyl-4-methyl-2-oxo-1-(6-(5-(trifluoromethyl)pyridin-3-yl)pyrrolo[1,2-b]pyridazin-4-yl)pyrrolidine-3-carbonitrile], for which the IC50 in test [1] is 1000 to 5000 nM; in test [2], 50 to 100 nM; in test [3], 1000 to 5000 nM; in test [4], 1000 to 5000 nM.
As to `COc1ncc(-c2cc3c(N4C[C@@H](C)[C@@](C#N)(C5CC5)C4=O)ccnn3c2)cn1` [Example 76, (3R,4S)-3-cyclopropyl-1-(6-(2-methoxypyrimidin-5-yl)pyrrolo[1,2-b]pyridazin-4-yl)-4-methyl-2-oxopyrrolidine-3-carbonitrile], the IC50 in test [1] lay within 100 to 1000 nM; in test [2], 50 to 100 nM; in test [3] it was 1000 to 5000 nM; in test [4], 1000 to 5000 nM.
On to `C[C@@H]1CN(c2ccnn3cc(-c4cccc5cnn(C)c45)cc23)C(=O)[C@]1(C#N)C1CC1` [Example 78, (3R,4S)-3-cyclopropyl-4-methyl-1-(6-(1-methyl-1H-indazol-7-yl)pyrrolo[1,2-b]pyridazin-4-yl)-2-oxopyrrolidine-3-carbonitrile], for which the IC50 is greater than 10000 nM in test [1], greater than 100 nM in test [2], greater than 10000 nM in test [3] and greater than 10000 nM in test [4].
With `Cc1ncc(-c2cc3c(N4C[C@@H](C)[C@@](C#N)(C5CC5)C4=O)ccnn3c2)cn1` [Example 80, (3R,4S)-3-cyclopropyl-4-methyl-1-(6-(2-methylpyrimidin-5-yl)pyrrolo[1,2-b]pyridazin-4-yl)-2-oxopyrrolidine-3-carbonitrile], the half-inhibitory concentration (IC50) in test [1] was 1000 to 5000 nM; in test [2] it was 50 to 100 nM; in test [3], 1000 to 5000 nM; in test [4], 1000 to 5000 nM.
For the molecule `COc1cncc(-c2cc3c(N4C[C@@H](C)[C@@](C#N)(C5CC5)C4=O)ccnn3c2)c1` [Example 82, (3R,4S)-3-cyclopropyl-1-(6-(5-methoxypyridin-3-yl)pyrrolo[1,2-b]pyridazin-4-yl)-4-methyl-2-oxopyrrolidine-3-carbonitrile], the IC50 in test [1] is greater than 10000 nM; in test [2] it was 20 to 50 nM; in test [3] it was greater than 10000 nM; in test [4] it was greater than 10000 nM.
Consider `COc1ncc(-c2cc3c(N4C[C@@H](C)[C@@](C#N)(C5CC5)C4=O)ccnn3c2)cc1C#N` [Example 85, 5-(4-((3R,4S)-3-cyano-3-cyclopropyl-4-methyl-2-oxopyrrolidin-1-yl)pyrrolo[1,2-b]pyridazin-6-yl)-2-methoxynicotinonitrile], for which the half-maximal inhibitory concentration (IC50) in test [1] is 1000 to 5000 nM; in test [2], 20 to 50 nM; in test [3] it was 1000 to 5000 nM; in test [4], 1000 to 5000 nM.
In the case of `C[C@@H]1CN(c2ccnn3cc(-c4cncc(Cl)c4)cc23)C(=O)[C@]1(C#N)C1CC1` [Example 87, (3R,4S)-1-(6-(5-chloropyridin-3-yl)pyrrolo[1,2-b]pyridazin-4-yl)-3-cyclopropyl-4-methyl-2-oxopyrrolidine-3-carbonitrile], the IC50 in test [1] is 5000 to 10000 nM; in test [2], 20 to 50 nM; in test [3], greater than 10000 nM; in test [4] it was greater than 10000 nM.
With `C[C@@H]1CN(c2ccnn3cc(-c4cncn4C)cc23)C(=O)[C@]1(C#N)C1CC1` [Example 89, (3R,4S)-3-cyclopropyl-4-methyl-1-(6-(1-methyl-1H-imidazol-5-yl)pyrrolo[1,2-b]pyridazin-4-yl)-2-oxopyrrolidine-3-carbonitrile], the IC50 is 1000 to 5000 nM in test [1], 20 to 50 nM in test [2], 1000 to 5000 nM in test [3] and 1000 to 5000 nM in test [4].
On to `C[C@@H]1CN(c2ccnn3cc(-c4cnc(N(C)C)nc4)cc23)C(=O)[C@]1(C#N)C1CC1` [Example 91, (3R,4S)-3-cyclopropyl-1-(6-(2-(dimethylamino)pyrimidin-5-yl)pyrrolo[1,2-b]pyridazin-4-yl)-4-methyl-2-oxopyrrolidine-3-carbonitrile], for which the half-maximal inhibitory concentration (IC50) lay in the range of 100 to 1000 nM in test [1], 20 to 50 nM in test [2], 1000 to 5000 nM in test [3] and 1000 to 5000 nM in test [4].
`C[C@@H]1CN(c2ccnn3cc(-c4cncnc4)cc23)C(=O)[C@]1(C#N)C1CC1` [Example 92, (3R,4S)-3-cyclopropyl-4-methyl-2-oxo-1-(6-(pyrimidin-5-yl)pyrrolo[1,2-b]pyridazin-4-yl)pyrrolidine-3-carbonitrile]: the IC50 in test [1] lay in the range of 1000 to 5000 nM; in test [2] it was 50 to 100 nM; in test [3], 5000 to 10000 nM; in test [4] it was 1000 to 5000 nM.
Consider `COc1cc(-c2cc3c(N4C[C@@H](C)[C@@](C#N)(C5CC5)C4=O)ccnn3c2)c(F)cn1` [Example 94, (3R,4S)-3-cyclopropyl-1-(6-(5-fluoro-2-methoxypyridin-4-yl)pyrrolo[1,2-b]pyridazin-4-yl)-4-methyl-2-oxopyrrolidine-3-carbonitrile], for which the IC50 in test [1] is 1000 to 5000 nM; in test [2] it was 20 to 50 nM; in test [3], greater than 10000 nM; in test [4], greater than 10000 nM.
On to `C[C@@H]1CN(c2ccnn3cc(-c4ccc(N(C)C(=O)OC(C)(C)C)nc4)cc23)C(=O)[C@]1(C#N)C1CC1` [Example 95, tert-butyl (5-(4-((3R,4S)-3-cyano-3-cyclopropyl-4-methyl-2-oxopyrrolidin-1-yl)pyrrolo[1,2-b]pyridazin-6-yl)pyridin-2-yl)(methyl)carbamate], for which the IC50 in test [1] is 100 to 1000 nM; in test [2], 5 to 20 nM; in test [3], 100 to 1000 nM; in test [4], 100 to 1000 nM.
In the case of `COc1cc(-c2cc3c(N4C[C@@H](C)[C@@](C#N)(C5CC5)C4=O)ccnn3c2)c(OC)nn1` [Example 98, (3R,4S)-3-cyclopropyl-1-(6-(3,6-dimethoxypyridazin-4-yl)pyrrolo[1,2-b]pyridazin-4-yl)-4-methyl-2-oxopyrrolidine-3-carbonitrile], the IC50 in test [1] fell in the range of 1000 to 5000 nM; in test [2] it was 50 to 100 nM; in test [3] it was 1000 to 5000 nM; in test [4], 5000 to 10000 nM.
With `C[C@@H]1CN(c2ccnn3cc(-c4cnn(C)n4)cc23)C(=O)[C@]1(C#N)C1CC1` [Example 99, (3R,4S)-3-cyclopropyl-4-methyl-1-(6-(2-methyl-2H-1,2,3-triazol-4-yl)pyrrolo[1,2-b]pyridazin-4-yl)-2-oxopyrrolidine-3-carbonitrile trifluoroacetate], the IC50 in test [1] lay within 100 to 1000 nM; in test [2], 20 to 50 nM; in test [3], 1000 to 5000 nM; in test [4], 100 to 1000 nM.

As a reminder, the IC50 is the concentration at which inhibition is half-maximal.

The record behind these values is patent publication US20260297085A1, “1 H-PYRROLO[2,3-B]PYRIDIN-4-YL]-2-OXOPYRROLIDINE-3-CARBONITRILE DERIVATIVES AS TYROSINE KINASE 2 (TYK2) INHIBITORS FOR THE TREATMENT OF INFLAMMATORY DISEASES” (BIOGEN MA INC., priority 2023, published 2026).
